Experiment [1] can be described thus: Maximal rate of vascular endothelium-dependent relaxation at the concentration of 10E-5 M/L. The settings on record: Oryctolagus cuniculus.
Experiment [2] has as its target Muscarinic acetylcholine receptor M3 (Cavia porcellus) (UniProt Q8VH26). Conditions: Ileum.
For experiment [3], the species on record is Rattus norvegicus. Description: Rate of relaxation of endothelium denuded rat aorta. It counts as functional.
The species entered for experiment [4] is Rattus norvegicus. In words: Rate of relaxation of Atropine treated rat aorta. It counts as functional.
Experiment [5] is filed under the species Rattus norvegicus. In words: Rate of relaxation of L-NAME treated rat aorta. It is filed as functional.
The species named for experiment [6] is Rattus norvegicus. In words: Rate of relaxation of endothelium intact rat aorta. It is filed as functional.
The species entered for experiment [7] is Rattus norvegicus. Description: Rate of relaxation of Indomethacin treated rat aorta. It counts as functional.
Experiment [8] can be described thus: Maximal rate of vascular endothelium-dependent relaxation at the concentration of 10E-5 M/L; 30-50%. The settings on record: Oryctolagus cuniculus.
For experiment [9], the system named is Oryctolagus cuniculus. Description: Vascular relaxation of rabbit carotid model at 0.1 M/L concentration with 5 mg/kg PPVP. It counts as functional.
Experiment [10] is filed under the species Oryctolagus cuniculus. In words: Vascular relaxation of rabbit carotid model (high lipid diet) at 0.1 M/L concentration. It is filed as functional.
Experiment [11] in a line: Maximal rate of vascular endothelium-dependent relaxation at the concentration of 10E-5 M/L; - = no activity. The settings on record: Oryctolagus cuniculus.

Calls of active or inactive are those of the source.

Results on 23 compounds are retold here after ChEMBL document CHEMBL1146775 (2004).

Muscarinic acetylcholine receptor M3 (Cavia porcellus), sequence (Q8VH26 1-587): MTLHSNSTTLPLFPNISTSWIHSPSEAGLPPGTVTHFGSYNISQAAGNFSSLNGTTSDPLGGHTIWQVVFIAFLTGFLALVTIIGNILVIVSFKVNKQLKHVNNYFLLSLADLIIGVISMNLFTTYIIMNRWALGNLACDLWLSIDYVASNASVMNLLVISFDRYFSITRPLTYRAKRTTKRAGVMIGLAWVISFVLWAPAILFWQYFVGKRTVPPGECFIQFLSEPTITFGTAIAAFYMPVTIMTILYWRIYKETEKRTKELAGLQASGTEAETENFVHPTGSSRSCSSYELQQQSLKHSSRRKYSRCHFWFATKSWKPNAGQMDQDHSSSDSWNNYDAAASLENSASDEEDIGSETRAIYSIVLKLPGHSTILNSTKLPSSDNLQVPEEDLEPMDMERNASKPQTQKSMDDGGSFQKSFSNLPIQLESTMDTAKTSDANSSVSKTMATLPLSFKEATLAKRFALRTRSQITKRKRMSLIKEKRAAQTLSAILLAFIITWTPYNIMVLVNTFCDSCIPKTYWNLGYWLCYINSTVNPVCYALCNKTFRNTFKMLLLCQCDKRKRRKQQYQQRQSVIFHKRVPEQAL

On to `CCOP(=O)(OCC)C(c1cc(Cl)cc(Cl)c1O)N1CCN(c2ccccn2)CC1` (stereo unspecified), for which the Relaxation in [1] was over 50%. The Contraction result in experiment [2] was “inactive”.

As for `CCOP(=O)(OCC)C(c1cc(OC)c(O)c(OC)c1)N1CCN(c2ccccn2)CC1.Cl` (stereo unspecified), the Relaxation in the experiment filed under Rattus norvegicus [3] was 5.7%; in experiment [1] it was over 50%; in the experiment listed under Rattus norvegicus [4], 82.6%; in the experiment filed under Rattus norvegicus [5], 26.2%; in the experiment filed under Rattus norvegicus [6], 84%; in the experiment filed under Rattus norvegicus [7], 14.2%. In addition, the Contraction entry in [2] is “inactive”.

As to `CN1CCN(C(C#N)c2cccc(F)c2)CC1` (stereo unspecified), in experiment [8], the Relaxation was determined as 50%. Moreover, the Contraction result in experiment [2] is “inactive”.

`COC(=O)CCCCN1CCOCC1` gave a Relaxation in experiment [8] of 50%. In addition, the Contraction entry in experiment [2] is “inactive”.

With `N#CCN1CCOCC1`, in experiment [8], the Relaxation amounted to 50%. Moreover, the Contraction entry in experiment [2] was “inactive”.

With `COc1cc(C(C#N)N2CCN(C)CC2)c([N+](=O)[O-])cc1OC` (stereo unspecified), the Relaxation in [1] is over 50%. Also, the Contraction entry in experiment [2] is “inactive”.

In experiment [8], `COc1cc(C(C#N)N2CCOCC2)cc(OC)c1OC` (stereo unspecified) gave a Relaxation of 50%. In addition, in [2], the Contraction result is “inactive”.

With `CN1CCN(CC#N)CC1`, the Relaxation in experiment [8] turned out to be 50%. The Contraction entry in [2] was “inactive”.

With `COc1cc(C(C#N)N2CCN(C)CC2)cc(OC)c1OC` (stereo unspecified), in experiment [1], the Relaxation was over 50%. For the same compound, the Contraction result in experiment [2] was “inactive”.

As for `CC(=O)OCC[N+](C)(C)C` [ACETYLCHOLINE], the results for the Relaxation in the experiment on Oryctolagus cuniculus [9] and in the experiment listed under Oryctolagus cuniculus [10] were 65.9% and 32.2%, respectively.

In the case of `NC(=O)CCN1CCOCC1`, the Relaxation entry in experiment [11] is “inactive”. In addition, the Contraction result in experiment [2] was “inactive”.

Take `CN1CCN(C(C#N)c2ccccc2F)CC1` (stereo unspecified): the Relaxation in experiment [8] stood at 50%. Moreover, in experiment [2], the Contraction entry was “inactive”.

On to `CCOP(=O)(OCC)C(c1ccc(O)c(OC)c1)N1CCN(c2ccccn2)CC1.Cl` (stereo unspecified), for which the Relaxation is 13.9% in the experiment listed under Rattus norvegicus [3]; over 50% in experiment [1]; 85.7% in the experiment filed under Rattus norvegicus [4]; 28.8% in the experiment listed under Rattus norvegicus [5]; 81.4% in the experiment filed under Rattus norvegicus [6]; 23.8% in the experiment filed under Rattus norvegicus [7]. Besides, the Contraction entry in [2] is “inactive”.

With `O/N=C1\CN2CCC1CC2`, the Relaxation result in experiment [11] was “inactive”. Moreover, the Contraction result in [2] is “inactive”.

In experiment [8], `CCOP(=O)(OCC)C(c1cc(OC)c(O)c(OC)c1)N1CCOCC1` (stereo unspecified) displayed a Relaxation of 50%. The Contraction entry in experiment [2] is “inactive”.

`N#CC(c1cccc(F)c1)N1CCOCC1` (stereo unspecified) had a Relaxation in [8] of 50%. Further, in experiment [2], the Contraction entry is “inactive”.

In the case of `N#CC1(O)CN2CCC1CC2` (stereo unspecified), the Relaxation result in experiment [11] is “inactive”. The Contraction entry in [2] was “inactive”.

For the compound `COC(=O)CCCN1CCOCC1`, the Relaxation result in experiment [11] was “inactive”. For the same compound, the Contraction result in experiment [2] is “inactive”.

`N#CC(c1ccccc1Cl)N1CCOCC1` (stereo unspecified): in experiment [8], the Relaxation turned out to be 50%. The Contraction entry in [2] was “inactive”.

Consider `CN1CCN(CCC(N)=O)CC1`, for which the Relaxation entry in experiment [11] was “inactive”. For the same compound, the Contraction entry in [2] was “inactive”.

For `CCN(CC)CCC(=O)OC`, the Relaxation entry in [11] was “inactive”. Besides, the Contraction result in experiment [2] was “inactive”.

Turning to `N#CCCN1CCOCC1`, in experiment [11], the Relaxation entry was “inactive”. Moreover, the Contraction result in experiment [2] was “inactive”.

`CN1CCN(C(C#N)c2ccc(F)cc2)CC1` (stereo unspecified) returned a Relaxation in experiment [8] of 50%. The Contraction entry in experiment [2] was “inactive”.
